Experimental data taken from PMC9046198, “Peptidoglycan biosynthesis is driven by lipid transfer along enzyme-substrate affinity gradients” (Nature Communications, 2022).

Experiments:
MraY [1] = molecular target: T1, MraY (Aquifex aeolicus, UniProt O66465); test: native MS binding to MraY dimer; also inhibits lipid I synthesis by purified MraY ([…])
T1 construct: wild-type MraY, MBP tag removed with HRV3C protease
T1 sequence (O66465 1-359): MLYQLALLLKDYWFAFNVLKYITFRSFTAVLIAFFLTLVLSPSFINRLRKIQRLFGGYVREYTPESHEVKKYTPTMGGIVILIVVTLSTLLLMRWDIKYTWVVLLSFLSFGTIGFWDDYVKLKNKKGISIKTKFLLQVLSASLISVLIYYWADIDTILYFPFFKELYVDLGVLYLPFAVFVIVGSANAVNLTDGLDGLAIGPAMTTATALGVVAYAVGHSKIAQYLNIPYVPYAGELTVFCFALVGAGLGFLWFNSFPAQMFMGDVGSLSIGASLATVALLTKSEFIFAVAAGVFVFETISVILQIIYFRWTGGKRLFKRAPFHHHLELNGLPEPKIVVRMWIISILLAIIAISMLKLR

MurG [2] = molecular target: T2, MurG (Escherichia coli, UniProt P17443); test: native MS titration ([…] MurG, […] lipid I), apparent Kd; assay type: binding
T2 construct: MurG-GFP-His6 fusion, tag removed with TEV protease
T2 sequence (P17443 2-355): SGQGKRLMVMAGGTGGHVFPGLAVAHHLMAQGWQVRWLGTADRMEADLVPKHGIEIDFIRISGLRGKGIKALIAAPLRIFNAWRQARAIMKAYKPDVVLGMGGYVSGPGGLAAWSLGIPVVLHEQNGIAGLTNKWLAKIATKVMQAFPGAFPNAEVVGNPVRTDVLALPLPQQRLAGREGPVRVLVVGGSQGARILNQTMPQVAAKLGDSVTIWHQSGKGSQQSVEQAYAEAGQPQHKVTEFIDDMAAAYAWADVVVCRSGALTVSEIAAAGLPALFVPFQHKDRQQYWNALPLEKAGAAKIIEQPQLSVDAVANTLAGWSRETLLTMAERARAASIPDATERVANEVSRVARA

MurG [3] = molecular target: T2, MurG; test: turnover by purified MurG (with MraY-bound lipid I) to lipid II monitored by native MS; assay type: biochemical
MraY [4] = molecular target: T1, MraY; test: native MS, endogenous adducts and exogenous C55-P titration; assay type: binding
MurG [5] = molecular target: T2, MurG; test: native MS titration, apparent Kd; assay type: binding

For tunicamycin, the “native MS binding to MraY dimer; also inhibits lipid I synthesis by purified Mra” value (MraY [1]) was “We also captured the binding of a nucleoside antibiotic tunicamycin to the MraY dimer”.
Molecule `CC(=O)N[C@H]1[C@@H](OP(=O)(O)OP(=O)(O)OC/C=C(/C)CC/C=C(/C)CC/C=C(/C)CC/C=C(/C)CC/C=C(/C)CC/C=C(/C)CC/C=C(/C)CC/C=C(/C)CC/C=C(\C)CC/C=C(\C)CCC=C(C)C)O[C@H](CO)[C@@H](O)[C@@H]1O[C@H](C)C(=O)N[C@@H](C)C(=O)N[C@H](CCC(=O)N[C@@H](CCCCN)C(=O)N[C@H](C)C(=O)N[C@H](C)C(=O)O)C(=O)O` [lipid I] has a Kd (MurG [2]) of 1900 ± 400 nM.
In the case of `CC(=O)N[C@H]1[C@@H](OP(=O)(O)OP(=O)(O)OC[C@H]2O[C@@H](n3ccc(=O)[nH]c3=O)[C@H](O)[C@@H]2O)O[C@H](CO)[C@@H](O)[C@@H]1O` [UDP-GlcNAc], the “turnover by purified MurG (with MraY-bound lipid I) to lipid II monitored by nat” value (MurG [3]) is reported as “we incubated MraY with MurG and UDP-GlcNAc and observed the formation of lipid II”.
For `CC(C)=CCC/C(C)=C/CC/C(C)=C/CC/C(C)=C\CC/C(C)=C\CC/C(C)=C\CC/C(C)=C\CC/C(C)=C\CC/C(C)=C\CC/C(C)=C\CC/C(C)=C\COP(=O)(O)O` [C55-P, undecaprenyl phosphate], the “native MS, endogenous adducts and exogenous C55-P titration” value (MraY [4]) was “The binding of up to four C55-P molecules per MraY dimer could be clearly resolved”.
lipid II was tested, and the Kd (MurG [5]) was 2600 ± 900 nM.
